{
  "source": "patent US20240245762A1",
  "about": "“METHODS AND PLATFORMS FOR PROMOTING ANTIGEN-SPECIFIC TOLERANCE IN THE TREATMENT OF TYPE 1 DIABETES AND GRAFT REJECTION AND COMPOSITIONS RELATING THERETO” (University of Maryland, College Park, priority 2021, published 2024)",
  "tested_on": "Eα presentation in MHC-II",
  "experiment": "Immunohistochemistry of Eα presentation in MHC-II (Y-ae) around HEVs of LNs",
  "type": "in vivo, mouse",
  "settings": "three daily i.p. injections starting on the day of MP treatment",
  "excerpt": "Immunohistochemistry and histology. The following antibodies were used for immunohistochemistry: ERTR7 (clone sc-73355), CD11c (cloneHL3), Laminin alpha4 (clone 775830), laminin alpha 5 (polyclonal), Foxp3 (clone NRRF-30), Vα2 TCR (clone B20.1). For immunohistochemistry, LNs and spleens were frozen with OCT compound (Scigen Tissue-Plus, Gardena, CA). Frozen sections were cut at 6 μm, fixed with cold acetone, blocked with 5% goat or donkey serum (Jackson ImmunoResearch, West Grove, PA) and incubated with the indicated antibodies and DAPI. […] Images were acquired with a Nikon Eclipse 700 (Nikon, Melville, NY, USA) and analyzed with Volocity image analysis software (Perkin Elmer, Waltham, MA). The positive staining area percentage was quantified based on at least three independent experiments with 3 sections per LN and 3-5 fields/section.\nSubsequently, we directly investigated the trafficking and presentation of antigen from MPs in […] LNs using Y-ae, a recently-developed antibody tool. […] At 2 days, Eα presentation localized with HEVs was detected in treated LNs (FIG. 12f), and increased by day 6 (FIG. 12g). […]",
  "data": [
    {"compound": "CCCCCCCCc1ccc(CCC(N)(CO)CO)cc1", "note": "[FTY720]", "values": [
      {"measurement": "effect on Eα presentation after Eα MP or Eα/rapamycin MP treatment", "result": "did not significantly affect Eα presentation"}
    ]}
  ]
}
